In PMC12123601, “Light-Induced, Lysine-Targeting Irreversible Covalent Inhibition of the Human Oxygen Sensing Hydroxylase Factor Inhibiting HIF (FIH)” (Journal of the American Chemical Society, 2025):

Test system: 3T3-L1-derived adipocytes
Assay: Lipid homeostasis in 3T3-L1-derived adipocytes (TG level, Oil Red O staining)
Assay type: cell-based
Description: 5 NBA-ZG-2991 sustainably engages with FIH and regulates the expression of FIH-dependent HIF target gene EGLN3 in Hep3B cells. (A) The CETSA assay was carried out with Hep3B cells grown in the presence of NBA-ZG-2291 (50 μM) for 12–48 h after 30 min of light activation (365 nm, 16 W). The intensity of the bands for grayscale analysis was referenced to the starting temperature (37 °C). α-Actinin was the sample loading control. n = 2; mean ± SD. […] (E) Correlation heatmap of the NBA-ZG-2291-treated group and the siFIH group by RNA-sequencing analysis. […] The relative fold change with respect to DMSO treated sample is shown (with normalization to HPRT gene levels). Mean ± SEM; n = 3. (G) TG level of NBA-ZG-2291-treated 3T3-L1-derived adipocytes. Mean ± SEM; n = 3. (H) Representative Oil Red O-stained images of the control, ZG-2291-treated, and NBA-ZG-2291-treated 3T3-L1-derived adipocytes. Scale Bar, 30 μm. P values were analyzed by two-way ANOVA comparing with the vehicle/control group (*, P < 0.05; **, P < 0.01; ***, P < 0.001, ****, P < 0.0001). See Methods (Quantitative PCR Analysis of Gene Expression) for assay details. […]

Compound: O=C(O)CNC(=O)c1ncc(-c2cc(-c3ccc(CO)c([N+](=O)[O-])c3)no2)cc1O [NBA-ZG-2291]
- Cellular triglyceride (TG) levels: significantly improved cellular triglyceride levels
- Lipid droplet accumulation (Oil Red O staining) (compared with control cells): reduced lipid droplet accumulation
